# Data as given in patent publication US20140303092A1 (CHIMERIX, INC., priority 2011, published 2014).
# Assay: Study HDP-CDV-201: safety and tolerability (adverse events, laboratory abnormalities, discontinuations)
# Assay type: in vivo, human (adult allogeneic HSCT recipients)
# Details: Cohort 4, 200 mg BIW
# Description: Clinical Studies of HDP-CDV were performed and described in detail in the following Examples. For example, HDP-CDV-201 is a placebo-controlled, dose-escalating trial in HSCT CMV (R+) recipients, evaluating the ability of HDP-CDV to prevent or control CMV infection was carried out. Five cohorts were established in which participants or subjects received either placebo or the HDP-CDV orally, in doses ranging from 40 mg weekly (QW) to 200 mg twice weekly (BIW). Subjects who were post-HSCT were enrolled at the time of engraftment and randomized to HDP-CDV or placebo (3 to 1 ratio) and received blinded therapy until approximately 100 day post-transplantation. HDP-CDV doses were 40 mg QW, 100 mg QW, 200 mg QW, 200 mg BIW and 100 mg BIW. Escalation to the next dose was decided by the data monitoring committee after review of the safety data from the previous Cohort. Subjects who developed CMV disease or CMV infection requiring pre-emptive therapy with local standard of care were discontinued from blinded therapy and followed for 4 weeks. Subjects who completed treatment with blinded therapy were followed for 8 weeks post-therapy.
# Data from Study HDP-CDV-201 also provided characterization of the safety and tolerability profile of HDP-CDV when administered for the prevention or control of CMV infection in high risk (R^+) post-HSCT adult subjects.
# The Safety population (SAFETY) included all randomized subjects who took at least one dose of study treatment. This population was used to summarize safety outcomes based on the treatment actually received, in cases where a subject was treated contrary to the randomization schedule.
# The safety and tolerability profile of HDP-CDV, including subject demographics and Baseline characteristics; the AE profile; and laboratory abnormalities of interest were analyzed in the cohorts followed in this investigation.
# Subjects completing the treatment period received a full course of study medication; those completing the entire study attended visits through 8 weeks of follow up. Subjects who discontinued treatment may have done so for protocol specified reasons (e.g. development of clinically significant CMV infection requiring preemptive treatment with excluded anti-CMV medications) or for other reasons (e.g., withdrawal, adverse events, loss to follow-up). The disposition of subjects in Study HDP-CDV-201 during the double-blind, placebo-controlled treatment period (through Week 11) is listed by dosing Cohort in TABLE 23.
# Adverse events were examined by severity to ensure that all safety signals were identified in this study population. Because of the frequency of events in HSCT recipients, particular attention was given to evaluation of Grade 3 […], 4 (severe), and 5 (fatal) adverse events.
# Only those preferred terms for which at least one Grade 3 or higher event was experienced in any treatment group are listed. Cytomegalovirus-related AEs are excluded from this analysis.
# HDP-CDV is a lipid conjugate of CDV. Because CDV is known to have adverse effects on renal function and bone marrow, decreased GFR and persistent neutropenia were identified as AEs of special interest. Key renal and hematological (TABLE 30) laboratory parameters were measured and listed below by Study HDP-CDV-201 treatment groups. TABLE 30 includes abnormal levels of serum creatinine, neutrophils, platelets, WBCs, and hemoglobin and includes data at Screening and during the treatment period.
# A common metric for unit based dosing of medications is by weight (mg/kg). When the distribution of weights was examined for all subjects participating in the study, the median was 78 kg and the lower 25th percentile weight was approximately 65 kg, which translates to a cut-off of ˜3 mg/kg for a 200 mg total weekly dose. Based upon this approach, a cut-off of 3 mg/kg was used to assess the frequency of diarrhea and associated GI AEs reported for the subjects in Cohorts 3 or 4a (TABLE 40).
smiles,measurement,setting,value
CCCCCCCCCCCCCCCCOCCCOP(=O)(O)COC(CO)Cn1ccc(N)nc1=O (centres unmarked) [HDP-CDV],"Alkaline Phosphatase (any time during therapy) >5.0-20.0 × ULN, subjects",,0
same,"Alkaline Phosphatase (any time during therapy) >20.0 × ULN, subjects",,0
same,"Alkaline Phosphatase (any time during therapy) >ULN-[…] ULN, subjects",,11 (37.9%)
same,"GI AE Leading to Study Drug Discontinuation: Abdominal pain, subjects",,1 (3.3%)
same,"GI AE Leading to Study Drug Discontinuation: Diarrhoea, subjects",,7 (23.3%)
same,"GI AE Leading to Study Drug Discontinuation: Dyspepsia, subjects",,0
same,"GI AE Leading to Study Drug Discontinuation: Nausea, subjects",,1 (3.3%)
same,"GI AE Leading to Study Drug Discontinuation: Vomiting, subjects",,0
same,GI AEs Leading to Study Drug Discontinuation: Total subjects discontinued,,9 (30.0%)
same,"Gastrointestinal AE Abdominal discomfort, subjects",,0
same,"Gastrointestinal AE Abdominal distention, subjects",,1 (3.3%)
same,"Gastrointestinal AE Abdominal pain upper, subjects",,3 (10.0%)
same,"Gastrointestinal AE Abdominal pain, subjects",,11 (36.7%)
same,"Gastrointestinal AE Constipation, subjects",,3 (10.0%)
same,"Gastrointestinal AE Diarrhoea, subjects",,21 (70.0%)
same,"Gastrointestinal AE Diverticulum intestinal haemorragic, subjects",,0
same,"Gastrointestinal AE Dyspepsia, subjects",,1 (3.3%)
same,"Gastrointestinal AE Dysphagia, subjects",,0
same,"Gastrointestinal AE Epigastric discomfort, subjects",,0
same,"Gastrointestinal AE Flatulence, subjects",,3 (10.0%)
same,"Gastrointestinal AE GERD, subjects",,2 (6.7%)
same,"Gastrointestinal AE Gastritis, subjects",,0
same,"Gastrointestinal AE Haematochezia, subjects",,0
same,"Gastrointestinal AE Haemorroids, subjects",,2 (6.7%)
same,"Gastrointestinal AE Large intestinal ulcer, subjects",,0
same,"Gastrointestinal AE Nausea, subjects",,11 (36.7%)
same,"Gastrointestinal AE Odynophagia, subjects",,1 (3.3%)
same,"Gastrointestinal AE Oesophagitis, subjects",,0
same,"Gastrointestinal AE Retching, subjects",,0
same,"Gastrointestinal AE Vomiting, subjects",,8 (26.7%)
same,"Hepatobiliary clinical AE Cholelithiasis, subjects",,0
same,"Hepatobiliary clinical AE Hepatomegaly, subjects",,1 (3.3%)
same,"Hepatobiliary clinical AE Hyperbilirubinaemia, subjects",,5 (16.7%)
same,"Hepatobiliary clinical AE Jaundice, subjects",,1 (3.3%)
same,"Hepatobiliary clinical AE Liver injury, subjects",,1 (3.3%)
same,"Intensity of Gastrointestinal AEs, Grade 1, subjects",,3 (10.0%)
same,"Intensity of Gastrointestinal AEs, Grade 2, subjects",,13 (43.3%)
same,"Intensity of Gastrointestinal AEs, Grade 3, subjects",,10 (33.3%)
same,"Intensity of Gastrointestinal AEs, Grade 4, subjects",,0
same,"Intensity of Gastrointestinal AEs, Grade 5, subjects",,1 (3.3%)
same,"Serum ALT level, Median fold increase from Baseline at Follow-up Week 1",,1.87 fold
same,"Serum ALT level, Median fold increase from Baseline at Follow-up Week 4",,1.34 fold
same,"Serum ALT level, Peak Median fold increase from Baseline",,3.55 fold
same,Subjects completed study,,6 (20.0%) n (%)
same,"Total Bilirubin (Screening) >1-[…] ULN, subjects",,1 (3.3%)
same,"Total Bilirubin (Screening) >1.5-3 × ULN, subjects",,0
same,"Total Bilirubin (Screening) >3-10 × ULN, subjects",,0
same,"Total Bilirubin (Screening) >10 × ULN, subjects",,0
same,"Total Bilirubin (any time during therapy) >1-[…] ULN, subjects",,3 (10.3%)
same,"Total Bilirubin (any time during therapy) >1.5-3 × ULN, subjects",,1 (3.4%)
same,"Total Bilirubin (any time during therapy) >3-10 × ULN, subjects",,1 (3.4%)
same,"Total Bilirubin (any time during therapy) >10 × ULN, subjects",,0
same,incidence of diarrhea,,70%
same,Abdominal pain leading to study drug withdrawal,N = 30,1 (3.3%)
same,All AEs leading to withdrawal,N = 30,18 (60.0%)
same,Diarrhoea leading to study drug withdrawal,N = 30,7 (23.3%)
